Results reported in patent US20230190870A1, “Method for Treating Lysosomal Storage Diseases with Histatin Peptides” (THE BOARD OF TRUSTEES OF THE UNIVERSITY OF ILLINOIS, priority 2020, published 2023).
Square brackets hold non-standard residues; d marks the D form. Peptide text beside a SMILES is read from it. pS = N[C@@H](COP(=O)(O)O)C(=O)O

How the values were obtained:
[1] = biological target: T1, TMEM97 (S2R) containing HEK293T membranes (Homo sapiens, UniProt Q5BJF2); assay: Radioligand binding/competition assay with [3H]-DTG (UNC PDSP); conditions: secondary radioligand binding assay; hot ligand [3H]-DTG
T1 construct: expressed in transfected cells; host or cells: HEK293T (transient overexpression; membranes prepared by UNC PDSP)

[2] = system: NPC1 KD cells; assay: Filipin staining of cholesterol in NPC1 knockdown cells; assay type: cell-based; conditions: 20 μM or 50 μM
Source text: Cholesterol. […] Filipin staining, the generally accepted tool for detection of cholesterol deposits in NPC cells (Vanier, et al. (2003) Clin. Genet. 64:269-81), was used to visualize cholesterol in control and NPC1 KD cells. This analysis indicated increased clustering and collection of filipin-stained cholesterol in NPC1 KD cells, consistent with the NPC1 phenotype.

[3] = system: HCE cells; assay: Immunofluorescence imaging of internalization and localization; assay type: cell-based, human
Experimental: Immunofluorescence Imaging. HCE cells were seeded on glass coverslips (Fisher Scientific Co.; Pittsburgh, Pa.) within a 6-well plate at 3×10^5 (cells/well) seeding density. […] HCE cells were then fixed in 3.7% paraformaldehyde, permeabilized with phosphate-buffered saline (PBS) containing 0.2% TRITON™ X-100 for 5 minutes, and washed three times for 5 minutes each time in PBS. For blocking, cells were and incubated at room temperature for 30 minutes with 5% bovine serum albumin (BSA) and 5% normal goat serum in PBS. For the Endoplasmic Reticulum (ER) staining, a Cytopainter ER staining kit (Abcam; Cambridge, Mass.) was used, following the manufacturer's instructions. After washing with 1×Assay buffer, cells were incubated with Green Detection Reagent to cover the monolayer of cells. For the detection of Hst1 and TMEM97, mouse anti-Hst1 antibody (Abcam; Cambridge, Mass.), rabbit primary antibody against Hst1 (Mybiosource; San Diego, Calif.), and rabbit anti-TMEM97 antibody (Novus Bio.; Littleton, Colo.) were used. Cells were incubated overnight at 4° C. with primary antibodies, washed three times for 5 minutes each time in PBS before incubation with secondary antibodies for 30 minutes. Cells were then counterstained with 1 μg/mL 4′,6-diamidino-2-phenylindole (DAPI) solution in PBS for 3 minutes, then washed three times with PBS containing 0.05% TRITON™ X-100 for 5 minutes each time, twice with PBS for 5 minutes each time, and once with distilled water for 10 seconds. The cells were mounted in Fluoro gel with Tris buffer (Electron Microscopy Sciences; Hatfield, Pa.) and observed under a confocal microscope (Zeiss LSM 710 Confocal Microscope; Oberkochen, Germany) using a 40×objective. Fluorescent dye sold under the tradename ALEXA FLUOR® 488 NHS Ester (Molecular Probes; Carlsbad, Calif.) was used for making Alexa-488 coupled synthetic Hst1.
Transfection/Knock-Down of TMEM97. Sub-confluent monolayers of HCE cells in grown in 35-mm six-well plates were transfected with reaction mixtures composed of 100 pmol of small interfering RNA (siRNA) to TMEM97 (Santa Cruz Biotechnology; Dallas, Tex.) for 48 hours and 5 μL of transfection reagent sold under the tradename LIPOFECTAMINE® 2000 (Invitrogen; Carlsbad, Calif.) in culture medium sold under the tradename OPTI-MEMO media (Gibco Life Technologies; Grand Island, N.Y.). Complexes were incubated for 20 minutes at 24° C. and then added to cells at 37° C. Incubation was continued for 24 to 48 hours at 37° C. in 5% CO2. Knock-down (KD) of TMEM97 was confirmed by western blot analysis using a rabbit anti-TMEM97 antibody (Novus Bio.; Littleton, Colo.). […]

Compound: CC(C)C[C@H](NC(=O)[C@H](Cc1ccc(O)cc1)NC(=O)[C@H](CC(N)=O)NC(=O)[C@H](CO)NC(=O)CNC(=O)[C@H](Cc1ccc(O)cc1)NC(=O)[C@H](CC(=O)O)NC(=O)CNC(=O)[C@H](Cc1ccc(O)cc1)NC(=O)[C@H](Cc1ccccc1)NC(=O)[C@@H]1CCCN1C(=O)[C@H](Cc1ccccc1)NC(=O)[C@H](CCC(=O)O)NC(=O)[C@H](CCCNC(=N)N)NC(=O)[C@H](Cc1c[nH]cn1)NC(=O)[C@H](CO)NC(=O)[C@H](Cc1c[nH]cn1)NC(=O)[C@H](Cc1c[nH]cn1)NC(=O)[C@H](CCCCN)NC(=O)[C@H](CCC(=O)O)NC(=O)[C@H](Cc1c[nH]cn1)NC(=O)[C@H](Cc1ccccc1)NC(=O)[C@H](CCCCN)NC(=O)[C@H](CCCNC(=N)N)NC(=O)[C@H](CCCNC(=N)N)NC(=O)[C@H](Cc1ccc(O)cc1)NC(=O)CNC(=O)[C@H](Cc1c[nH]cn1)NC(=O)[C@H](Cc1c[nH]cn1)NC(=O)[C@H](CCCNC(=N)N)NC(=O)[C@H](CCCCN)NC(=O)[C@H](CCC(=O)O)NC(=O)[C@H](Cc1c[nH]cn1)NC(=O)[C@H](COP(=O)(O)O)NC(=O)[C@@H](N)CC(=O)O)C(=O)N[C@@H](Cc1ccc(O)cc1)C(=O)N[C@@H](CC(=O)O)C(=O)N[C@@H](CC(N)=O)C(=O)O [Hst1] (H-D[pS]HEKRHHGYRRKFHEKHHSHREFPFYGDYGSNYLYDN-OH; N-terminus and C-terminus assumed)
- Ki [1]: 239 nM
- cholesterol accumulation (Filipin staining) [2]: reduced cholesterol accumulation
- co-immunolocalization with TMEM97 ([3]; exogenously applied Hst1): significant overlap
- co-localization with endoplasmic reticulum stain ([3]; exogenously applied Hst1): good co-localization
- internalization and/or localization in TMEM97 KD cells ([3]; siRNA knock-down of TMEM97): significantly disrupted internalization and/or localization
